Measured values reported in patent US9067943B2, “[1,2,3]triazolo[4,5-D]pyrimidine derivatives” (priority 2011, dated 2015).
Like-named read-outs stand apart in the source and are kept apart here.

How the values were obtained:
human CB2 receptors = target: T1, human CB2 receptors (Homo sapiens, UniProt P34972); assay: cAMP assay; format: cell-based
T1 construct: expressed in transfected cells; host or cells: CHO cells
Protocol: (§1) CHO cells expressing human CB1 or CB2 receptors are seeded 17-24 hours prior to the experiment 50.000 cells per well in a black 96 well plate with flat clear bottom (Corning Costar #3904) in DMEM (Invitrogen No. 31331), 1×HT supplement, with 10% fetal calf serum and incubated at 5% CO2 and 37° C. in a humidified incubator. The growth medium was exchanged with Krebs Ringer Bicarbonate buffer with 1 mM IBMX and incubated at 30° C. for 30 min. Compounds were added to a final assay volume of 100 μl and incubated for 30 min at 30° C. Using the cAMP-Nano-TRF detection kit the assay (Roche Diagnostics) was stopped by the addition of 50 μl lysis reagent (Tris, NaCl, 1.5% Triton X100, 2.5% NP40, 10% NaN3) and 50 μl detection solutions (20 μM mAb Alexa700-cAMP 1:1, and 48 μM Ruthenium-2-AHA-cAMP) and shaken for 2 h at room temperature. The time-resolved energy transfer is measured by a TRF reader (Evotec Technologies GmbH), equipped with a ND:YAG laser as excitation source. The plate is measured twice with the excitation at 355 nm and at the emission with a delay of 100 ns and a gate of 100 ns, total exposure time 10 s at 730 (bandwidth 30 nm) or 645 nm (bandwidth 75 nm), respectively. The FRET signal is calculated as follows: FRET=T730-Alexa730-P(T645-B645) with P=Ru730-B730/Ru645-B645, where T730 is the test well measured at 730 nM, T645 is the test well measured at 645 nm, B730 and B645 are the buffer controls at 730 nm and 645 nm, respectively. cAMP content is determined from the function of a standard curve spanning from 10 μM to 0.1 nM cAMP.
(§2) EC50 values were determined using Activity Base analysis (ID Business Solution, Limited). The EC50 values for a wide range of cannabinoid agonists generated from this assay were in agreement with the values published in the scientific literature.

human CB1 receptors = target: T2, human CB1 receptors (Homo sapiens, UniProt P21554); assay: cAMP assay; format: cell-based
T2 construct: expressed in transfected cells; host or cells: CHO cells
T2 sequence (P21554 whole entry): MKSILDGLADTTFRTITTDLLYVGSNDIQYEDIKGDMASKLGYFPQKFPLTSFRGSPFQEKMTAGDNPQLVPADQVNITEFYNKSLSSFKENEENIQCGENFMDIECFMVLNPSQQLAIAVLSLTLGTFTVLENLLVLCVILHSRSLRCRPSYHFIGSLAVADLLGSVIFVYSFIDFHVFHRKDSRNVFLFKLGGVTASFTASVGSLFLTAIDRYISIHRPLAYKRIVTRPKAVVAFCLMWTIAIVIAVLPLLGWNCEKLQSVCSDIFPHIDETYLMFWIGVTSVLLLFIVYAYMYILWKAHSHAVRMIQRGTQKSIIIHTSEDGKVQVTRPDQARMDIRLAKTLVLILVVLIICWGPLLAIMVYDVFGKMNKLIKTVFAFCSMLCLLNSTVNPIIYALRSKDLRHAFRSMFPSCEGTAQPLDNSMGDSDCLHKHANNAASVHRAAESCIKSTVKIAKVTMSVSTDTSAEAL
Protocol: as §1, §2

[1] = functional cAMP assay, CHO cells expressing human CB2, read-out: human CB2 EC50

T1 sequence (P34972 whole entry): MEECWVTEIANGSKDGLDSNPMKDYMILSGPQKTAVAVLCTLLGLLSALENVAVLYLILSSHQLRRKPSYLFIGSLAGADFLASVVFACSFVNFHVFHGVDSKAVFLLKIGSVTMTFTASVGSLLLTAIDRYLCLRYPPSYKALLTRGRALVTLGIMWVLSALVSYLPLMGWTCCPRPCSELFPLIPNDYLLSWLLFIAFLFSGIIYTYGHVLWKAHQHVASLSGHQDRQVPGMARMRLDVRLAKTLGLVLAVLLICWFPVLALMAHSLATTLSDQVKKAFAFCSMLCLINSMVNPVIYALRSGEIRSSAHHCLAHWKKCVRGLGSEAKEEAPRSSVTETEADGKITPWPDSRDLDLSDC

| Structure (SMILES) | EC50 (human CB2 receptors) [nM] | EC50 (human CB1 receptors) [nM] | EC50 (human CB2 receptors; [1]) [nM] |
| --- | --- | --- | --- |
| CC(C)(C)c1nc(N2CCC(F)(F)C2)c2nn(Cc3cccc(C(F)(F)F)c3Cl)nc2n1 [Example 56, 5-tert-Butyl-2-(2-chloro-3-trifluoromethyl-benzyl)-7-(3,3-difluoro-pyrrolidin-1-yl)-2H-[1,2,3]triazolo[4,5-d]pyrimidine] | 12.6 | > 10000 |  |
| CC(C)(C)c1nc(N2CCC(F)(F)C2)c2nn(Cc3ccc(Cl)cc3Cl)nc2n1 [Example 10, 5-tert-Butyl-2-(2,4-dichloro-benzyl)-7-(3,3-difluoro-pyrrolidin-1-yl)-2H-[1,2,3]triazolo[4,5-d]pyrimidine] | 4.1 | > 10000 |  |
| C[C@H](c1ccccc1Cl)n1nc2nc(C(C)(C)C)nc(N3CCC(F)(F)C3)c2n1 [Example 28, 5-tert-Butyl-2-[(R)-1-(2-chloro-phenyl)-ethyl]-7-(3,3-difluoro-pyrrolidin-1-yl)-2H-[1,2,3]triazolo[4,5-d]pyrimidine] | 0.2 | 134 |  |
| Cc1noc(Cn2nc3nc(O[C@@H](C)C(F)(F)F)nc(N4CCC(F)(F)C4)c3n2)n1 [Example 119, 7-(3,3-Difluoro-pyrrolidin-1-yl)-2-(3-methyl-[1,2,4]oxadiazol-5-ylmethyl)-5-((S)-2,2,2-trifluoro-1-methyl-ethoxy)-2H-[1,2,3]triazolo[4,5-d]pyrimidine] |  | > 10000 | 439 |
| CC(C)(C)c1nc(N2CC[C@](C)(O)C2)c2nn(Cc3ccccc3Cl)nc2n1 [Example 124-a, (S)-1-[5-tert-Butyl-2-(2-chloro-benzyl)-2H-[1,2,3]triazolo[4,5-d]pyrimidin-7-yl]-3-methyl-pyrrolidin-3-ol] | 2.5 | > 10000 |  |
| COc1ccc(F)c(Cn2nc3nc(C(C)(C)C)nc(N4CCC(F)(F)C4)c3n2)c1Cl [Example 57, 5-tert-Butyl-2-(2-chloro-6-fluoro-3-methoxy-benzyl)-7-(3,3-difluoro-pyrrolidin-1-yl)-2H-[1,2,3]triazolo[4,5-d]pyrimidine] | 3.6 | > 10000 |  |
| O[C@H]1CCN(c2nc(OCC(F)(F)F)nc3nn(Cc4ccccc4C(F)(F)F)nc23)C1 [Example 110, (S)-1-[5-(2,2,2-Trifluoro-ethoxy)-2-(2-trifluoromethyl-benzyl)-2H-[1,2,3]triazolo[4,5-d]pyrimidin-7-yl]-pyrrolidin-3-ol] | 60 | > 10000 |  |
| C[C@H](Oc1nc(N2CCC(F)(F)C2)c2nn(Cc3ccccc3C(F)(F)F)nc2n1)C(F)(F)F [Example 115, 7-(3,3-Difluoro-pyrrolidin-1-yl)-2-(2-trifluoromethyl-benzyl)-5-((S)-2,2,2-trifluoro-1-methyl-ethoxy)-2H-[1,2,3]triazolo[4,5-d]pyrimidine] | 31.2 | > 10000 |  |
| Cn1nncc1Cn1nc2nc(C(C)(C)C)nc(N3CCC(F)(F)C3)c2n1 [Example 82, 5-tert-Butyl-7-(3,3-difluoro-pyrrolidin-1-yl)-2-(3-methyl-3H-[1,2,3]triazol-4-ylmethyl)-2H-[1,2,3]triazolo[4,5-d]pyrimidine] | 2.8 | > 10000 |  |
| CC(C)(C)c1nc(N2CCC(F)(F)C2)c2nn(Cc3ncccc3Cl)nc2n1 [Example 36, 5-tert-Butyl-2-(3-chloro-pyridin-2-ylmethyl)-7-(3,3-difluoro-pyrrolidin-1-yl)-2H-[1,2,3]triazolo[4,5-d]pyrimidine] | 0.2 | 20.3 |  |
| Cc1nnc(Cn2nc3nc(C(C)(C)C)nc(N4CC(F)(F)C(F)(F)C4)c3n2)n1C [Example 103, 5-tert-Butyl-2-(4,5-dimethyl-4H-[1,2,4]triazol-3-ylmethyl)-7-(3,3,4,4-tetrafluoro-pyrrolidin-1-yl)-2H-[1,2,3]triazolo[4,5-d]pyrimidine] | 20.9 | > 10000 |  |
| C[C@H](Oc1nc(N2CCC(F)(F)C2)c2nn(CCC(F)(F)F)nc2n1)C(F)(F)F [Example 122, 7-(3,3-Difluoro-pyrrolidin-1-yl)-5-((S)-2,2,2-trifluoro-1-methyl-ethoxy)-2-(3,3,3-trifluoro-propyl)-2H-[1,2,3]triazolo[4,5-d]pyrimidine] | 8.4 | > 10000 |  |
| Cn1ncnc1Cn1nc2nc(C(C)(C)C)nc(N3CC[C@H](O)C3)c2n1 [Example 89, (S)-1-[5-tert-Butyl-2-(2-methyl-2H-[1,2,4]triazol-3-ylmethyl)-2H-[1,2,3]triazolo[4,5-d]pyrimidin-7-yl]-pyrrolidin-3-ol] |  | > 10000 | 372 |
| Cn1nnnc1Cn1nc2nc(C(C)(C)C)nc(N3CC(F)(F)C(F)(F)C3)c2n1 [Example 102, 5-tert-Butyl-2-(1-methyl-1H-tetrazol-5-ylmethyl)-7-(3,3,4,4-tetrafluoro-pyrrolidin-1-yl)-2H-[1,2,3]triazolo[4,5-d]pyrimidine] | 6.3 | > 10000 |  |
| CC(C)(C)c1nc(N2CCC(F)(F)C2)c2nn(Cc3c(Cl)ccnc3Cl)nc2n1 [Example 44, 5-tert-Butyl-2-(2,4-dichloro-pyridin-3-ylmethyl)-7-(3,3-difluoro-pyrrolidin-1-yl)-2H-[1,2,3]triazolo[4,5-d]pyrimidine] | 0.2 | 454 |  |
| Cc1nonc1Cn1nc2nc(C(C)(C)C)nc(N3CCC(F)(F)C3)c2n1 [Example 39, 5-tert-Butyl-7-(3,3-difluoro-pyrrolidin-1-yl)-2-(4-methyl-furazan-3-ylmethyl)-2H-[1,2,3]triazolo[4,5-d]pyrimidine] | 0.2 | > 10000 |  |
| CC(C)(C)c1nc(N2CC[C@H](O)C2)c2nn(Cc3nnnn3C3CC3)nc2n1 [Example 94, (S)-1-[5-tert-Butyl-2-(1-cyclopropyl-1H-tetrazol-5-ylmethyl)-2H-[1,2,3]triazolo[4,5-d]pyrimidin-7-yl]-pyrrolidin-3-ol] |  | > 10000 | 251 |
| Cn1nnnc1Cn1nc2nc(C(C)(C)C)nc(N3CC[C@@H](O)C3)c2n1 [Example 113, (R)-1-[5-tert-Butyl-2-(1-methyl-1H-tetrazol-5-ylmethyl)-2H-[1,2,3]triazolo[4,5-d]pyrimidin-7-yl]-pyrrolidin-3-ol] | 1660 | > 10000 |  |
| CC(C)(C)c1nc(N2CCC(F)(F)C2)c2nn(Cc3ccccn3)nc2n1 [Example 15, 5-tert-Butyl-7-(3,3-difluoro-pyrrolidin-1-yl)-2-pyridin-2-ylmethyl-2H-[1,2,3]triazolo[4,5-d]pyrimidine] | 0.7 | 210 |  |
| CC(=O)N[C@H]1CCN(c2nc(NC(C)(C)C)nc3nn(Cc4ccccc4Cl)nc23)C1 [Example 144, N—{(S)-1-[5-tert-Butylamino-2-(2-chloro-benzyl)-2H-[1,2,3]triazolo[4,5-d]pyrimidin-7-yl]-pyrrolidin-3-yl}-acetamide] |  | > 10000 | 1950 |
| CC(C)(C)c1nc(N2CCC(F)(F)C2)c2nn(CC(F)(F)F)nc2n1 [Example 18, 5-tert-Butyl-7-(3,3-difluoro-pyrrolidin-1-yl)-2-(2,2,2-trifluoro-ethyl)-2H-[1,2,3]triazolo[4,5-d]pyrimidine] | 1.4 | > 10000 |  |
| Cc1nonc1Cn1nc2nc(C(C)(C)C)nc(N3CC[C@@](C)(O)C3)c2n1 [Example 131-b, (R)-1-[5-tert-Butyl-2-(4-methyl-furazan-3-ylmethyl)-2H-[1,2,3]triazolo[4,5-d]pyrimidin-7-yl]-3-methyl-pyrrolidin-3-ol] | 61.4 | > 10000 |  |
| Cn1nncc1Cn1nc2nc(C(C)(C)C)nc(N3CC[C@H](O)C3)c2n1 [Example 90, (S)-1-[5-tert-Butyl-2-(3-methyl-3H-[1,2,3]triazol-4-ylmethyl)-2H-[1,2,3]triazolo[4,5-d]pyrimidin-7-yl]-pyrrolidin-3-ol] | 40.7 | > 10000 |  |
| CC(C)(C)c1nc(N2CCC(F)(F)C2)c2nn(CCc3cccc(Cl)c3)nc2n1 [Example 42, 5-tert-Butyl-2-[2-(3-chloro-phenyl)-ethyl]-7-(3,3-difluoro-pyrrolidin-1-yl)-2H-[1,2,3]triazolo[4,5-d]pyrimidine] | 10.6 | > 10000 |  |
| Cn1nnnc1Cn1nc2nc(OCC(C)(C)C)nc(N3CCC(F)(F)C3)c2n1 [Example 112, 7-(3,3-Difluoro-pyrrolidin-1-yl)-5-(2,2-dimethyl-propoxy)-2-(1-methyl-1H-tetrazol-5-ylmethyl)-2H-[1,2,3]triazolo[4,5-d]pyrimidine] | 30.9 | > 10000 |  |
| CC(C)(C)c1nc(N2CCC(F)(F)C2)c2nn(CC(=O)c3cccc(Cl)c3)nc2n1 [Example 52, 2-[5-tert-Butyl-7-(3,3-difluoro-pyrrolidin-1-yl)-[1,2,3]triazolo[4,5-d]pyrimidin-2-yl]-1-(3-chloro-phenyl)-ethanone] | 13 | > 10000 |  |
